Source: ChEMBL document CHEMBL3621049, “Imidazole derivatives show anticancer potential by inducing apoptosis and cellular senescence” (2014)
The source made the active and inactive calls.

Columns and labels:
K562 = assay: Growth inhibition of human K562 cells at 10 uM by sulforhodamine B assay; type: functional, cell-based
RPMI-8226 = assay: Growth inhibition of human RPMI8226 cells at 10 uM by sulforhodamine B assay; type: functional, cell-based
NCI-H226 = assay: Growth inhibition of human NCI-H226 cells at 10 uM by sulforhodamine B assay; type: functional, cell-based
NCI-H322M = assay: Growth inhibition of human NCI-H322M cells at 10 uM by sulforhodamine B assay; type: functional, cell-based
HCT-15 = assay: Growth inhibition of human HCT15 cells at 10 uM by sulforhodamine B assay; type: functional, cell-based
HT-29 = assay: Growth inhibition of human HT-29 cells at 10 uM by sulforhodamine B assay; type: functional, cell-based
SF-268 = assay: Growth inhibition of human SF268 cells at 10 uM by sulforhodamine B assay; type: functional, cell-based
SF-539 = assay: Growth inhibition of human SF539 cells at 10 uM by sulforhodamine B assay; type: functional, cell-based
SNB-19 = assay: Growth inhibition of human SNB19 cells at 10 uM by sulforhodamine B assay; type: functional, cell-based
SNB-75 = assay: Growth inhibition of human SNB75 cells at 10 uM by sulforhodamine B assay; type: functional, cell-based
MDA-MB-435 = assay: Growth inhibition of human MDA-MB-435 cells at 10 uM by sulforhodamine B assay; type: functional, cell-based
SK-MEL-2 = assay: Growth inhibition of human SK-MEL-2 cells at 10 uM by sulforhodamine B assay; type: functional, cell-based
SK-MEL-5 = assay: Growth inhibition of human SK-MEL-5 cells at 10 uM by sulforhodamine B assay; type: functional, cell-based
UACC-257 = assay: Growth inhibition of human UACC257 cells at 10 uM by sulforhodamine B assay; type: functional, cell-based
OVCAR-4 = assay: Growth inhibition of human OVCAR4 cells at 10 uM by sulforhodamine B assay; type: functional, cell-based
CAKI-1 = assay: Growth inhibition of human Caki1 cells at 10 uM by sulforhodamine B assay; type: functional, cell-based
PC-3 = assay: Growth inhibition of human PC3 cells at 10 uM by sulforhodamine B assay; type: functional, cell-based
DU-145 = assay: Growth inhibition of human DU145 cells at 10 uM by sulforhodamine B assay; type: functional, cell-based
Hs-578T = assay: Growth inhibition of human Hs 578T cells at 10 uM by sulforhodamine B assay; type: functional, cell-based
MDA-MB-468 = assay: Growth inhibition of human MDA-MB-468 cells at 10 uM by sulforhodamine B assay; type: functional, cell-based
TK-10 = assay: Growth inhibition of human TK10 cells at 10 uM by sulforhodamine B assay; type: functional, cell-based
A549 [1] = assay: Cytotoxicity against human A549 cells assessed as decrease in cell viability up to 72 hrs by MTT assay; type: functional, cell-based
A549 [2] = assay: Inhibition of colony formation in human A549 cells after 14 days using crystal violet staining by soft agar assay; type: functional, cell-based
A549 [3] = assay: Cell cycle arrest in human A549 cells assessed as accumulation at G0/G1 phase at 5 uM after 48 hrs using propidium iodide staining by flow cytometer analysis (reference value: 79.34%); type: functional
A549 [4] = assay: Cell cycle arrest in human A549 cells assessed as accumulation at S phase at 5 uM after 48 hrs using propidium iodide staining by flow cytometer analysis (reference value: 6.67%); type: functional
A549 [5] = assay: Cell cycle arrest in human A549 cells assessed as accumulation at G2/M phase at 5 uM after 48 hrs using propidium iodide staining by flow cytometer analysis (reference value: 13.02%); type: functional
A549 [6] = assay: Cell cycle arrest in human A549 cells assessed as accumulation at sub-G1 phase at 10 uM after 48 hrs using propidium iodide staining by flow cytometer analysis (reference value: 0.96%); type: functional
A549 [7] = assay: Cell cycle arrest in human A549 cells assessed as accumulation at S phase at 20 uM after 48 hrs using propidium iodide staining by flow cytometer analysis (reference value: 6.67%); type: functional

COc1ccc(-c2nc(-c3ccccn3)c(-c3ccccn3)n2CC(C)C)cc1OC1CCCC1
7.63%: Activity (A549 [6])
active: growth inhibition (GI) (K562) | growth inhibition (GI) (RPMI-8226) | growth inhibition (GI) (NCI-H226) | growth inhibition (GI) (NCI-H322M) | growth inhibition (GI) (HCT-15) | growth inhibition (GI) (HT-29) | growth inhibition (GI) (SF-268) | growth inhibition (GI) (SF-539) | growth inhibition (GI) (SNB-19) | growth inhibition (GI) (SNB-75) | growth inhibition (GI) (MDA-MB-435) | growth inhibition (GI) (SK-MEL-2) | growth inhibition (GI) (SK-MEL-5) | growth inhibition (GI) (UACC-257) | growth inhibition (GI) (OVCAR-4) | growth inhibition (GI) (CAKI-1) | growth inhibition (GI) (PC-3) | growth inhibition (GI) (DU-145) | growth inhibition (GI) (Hs-578T) | growth inhibition (GI) (MDA-MB-468) | growth inhibition (GI) (TK-10) | Activity (A549 [1]) Dose-dependent effect | inhibition (A549 [2]) Dose-dependent effect
3.47%: Activity (A549 [4])
89.38%: Activity (A549 [3])
6.63%: Activity (A549 [7])
4.65%: Activity (A549 [5])
